Among the data in ChEMBL document CHEMBL5604063, “ASAP - DENV-2 NS2B-NS3 protease fluorescence dose response” (2024) are IC50 values, retold here.

pIC50: −log10 of the molar value. “And” between values parts separate entries of the source, which are not always exact repeats. Identical values can stand only once.

As usually defined, the pIC50 is the negative decadic logarithm of the IC50, by convention in mol/L. A high value points to a low IC50. For orientation: IC50 means the concentration that inhibits the measured activity by half.

The target of assay [1] is T1, Genome polyprotein (dengue virus type 2, UniProt P29990). It counts as functional, Thailand/16681/1984.
T1 sequence (P29990 1346-1475 limits assumed): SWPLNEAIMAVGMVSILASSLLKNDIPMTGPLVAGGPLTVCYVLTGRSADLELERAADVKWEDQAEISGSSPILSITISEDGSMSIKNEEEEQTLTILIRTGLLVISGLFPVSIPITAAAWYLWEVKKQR
T1 sequence (P29990 1476-2093 limits assumed): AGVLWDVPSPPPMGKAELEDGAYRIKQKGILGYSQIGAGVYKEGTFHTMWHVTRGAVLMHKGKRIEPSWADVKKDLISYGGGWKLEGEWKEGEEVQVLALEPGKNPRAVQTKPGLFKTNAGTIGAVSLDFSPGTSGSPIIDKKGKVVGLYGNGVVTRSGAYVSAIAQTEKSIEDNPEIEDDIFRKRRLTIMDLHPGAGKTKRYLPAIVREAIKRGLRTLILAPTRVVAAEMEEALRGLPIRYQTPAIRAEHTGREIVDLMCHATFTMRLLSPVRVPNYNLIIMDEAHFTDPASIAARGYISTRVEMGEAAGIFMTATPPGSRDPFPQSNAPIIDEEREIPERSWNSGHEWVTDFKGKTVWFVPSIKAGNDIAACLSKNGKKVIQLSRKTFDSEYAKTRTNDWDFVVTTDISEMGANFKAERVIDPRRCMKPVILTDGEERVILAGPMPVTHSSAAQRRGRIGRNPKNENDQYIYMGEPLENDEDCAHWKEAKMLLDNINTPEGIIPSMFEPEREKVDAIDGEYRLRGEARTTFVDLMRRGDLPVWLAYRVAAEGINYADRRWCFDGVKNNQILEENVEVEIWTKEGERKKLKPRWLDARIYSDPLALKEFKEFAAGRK
Assay [2] concerns the target T1, Genome polyprotein. Type of assay: functional, Thailand/16681/1984. This is another data set of the same source.

Regarding `Cc1c(C(=O)Nc2cc(C(=O)N[C@H]3CNC(=O)C3)ccn2)cc(C2CC2)n1C`, the pIC50 on Genome polyprotein [1] and at Genome polyprotein [2] was under 4.00 in each case.
In the case of `COc1ccc(COc2ccc([C@H](NC(=O)OCc3ccccc3)C(=O)Nc3cccc(CN)c3)cc2)cn1`, the pIC50 at Genome polyprotein [1] and against Genome polyprotein [2] was under 4.00 throughout.
On to `COc1ccc2nc(C)cc(C(=O)Nc3cccc(CN)c3)c2c1`, for which the pIC50 at Genome polyprotein [1] and on Genome polyprotein [2] was under 4.00 in each case.
Take `O=C(Nc1cc(-c2cccnc2)ccn1)c1ccc(C2CC2)cc1`: the pIC50 against Genome polyprotein [1] and against Genome polyprotein [2] was under 4.00 each time.
Regarding `CO[C@H]1Cc2ccc(NC(=O)c3cc(C4CC4)n(C)c3C)cc2C1`, the negative-log IC50 (pIC50) against Genome polyprotein [1] and against Genome polyprotein [2] was under 4.00 throughout.
As to `C#Cc1cc(Cl)cc(C(=O)Nc2ccc3c(c2)CNC3)c1`, the pIC50 at Genome polyprotein [1] and at Genome polyprotein [2] was under 4.00 throughout.
`CN1CCc2c([nH]c3ccc(C(=O)Nc4ccc5c(c4)CNC5)cc23)C1=O`: the pIC50 against Genome polyprotein [1] and against Genome polyprotein [2] was under 4.00 in each case.
Take `CC(=Cc1cccc(-c2nnn[nH]2)c1)c1cc(Cl)cc(NC(=O)OCc2ccccc2)c1`: the pIC50 at Genome polyprotein [1] was 5.02; on Genome polyprotein [2], 5.05 and 4.93.
As for `NCc1cccc(NC(=O)c2cc(Cl)cc(Cl)c2OCc2ccccc2)c1`, the pIC50 is 4.35 against Genome polyprotein [1] and 4.37 against Genome polyprotein [2].
For `NCc1cc(Cl)cc(C(=O)Nc2ccc3c(c2)CNC3)c1` the same measures were under 4.00 and under 4.00.
As to `NC1(c2cccc(NS(=O)(=O)c3ccc(Oc4ccccc4Cl)cc3)c2)CCC1`, the pIC50 against Genome polyprotein [1] and on Genome polyprotein [2] was under 4.00 in each case.
Turning to `C=CC[C@H](Nc1cc(Cl)cc(NC(=O)OCc2ccccc2)c1)c1cccc(-c2nn[nH]n2)c1`, the pIC50 on Genome polyprotein [1] was 5.13 and 5.12; at Genome polyprotein [2] it was 5.17 and 5.30 and 5.26 and 5.24 and 5.38.
With `Cc1cc(-c2ccc3[nH]c(C(=O)O)cc3c2)c(=O)n(Cc2ccccc2)c1`, the pIC50 against Genome polyprotein [1] and at Genome polyprotein [2] was under 4.00 in each case.
As for `CCOC(=O)[C@H](Nc1ccc2c(c1)CNC2)c1cc(Cl)cc(C2CC2)c1`, the values for the pIC50 at Genome polyprotein [1] and at Genome polyprotein [2] were 4.12 and 4.05, respectively.
As to `Cc1c(NC(=O)c2cccc3c2CC(=O)N3)cnn1C1CCOCC1`, the pIC50 on Genome polyprotein [1] and against Genome polyprotein [2] was under 4.00 each time.
Turning to `O=C(Nc1ccc2c(c1)CNC2)N1CCC[C@H](CC2CCC2)C1`, the pIC50 on Genome polyprotein [1] and against Genome polyprotein [2] was under 4.00 each time.
As to `O=C(Nc1cc(-c2cccnc2)ccn1)c1nnc(C2CC2)s1`, the negative-log IC50 (pIC50) against Genome polyprotein [1] and against Genome polyprotein [2] was under 4.00 throughout.
As for `O=C(Nc1ccc2c(c1)CNC2)c1ccccc1-n1cccc1`, the pIC50 at Genome polyprotein [1] and at Genome polyprotein [2] was under 4.00 each time.
As to `O=C(Nc1cc(Cl)cc([C@H](C#CCO)Nc2ccc(-c3nn[nH]n3)cc2)c1)OCc1ccccc1`, the pIC50 at Genome polyprotein [1] is 4.91; on Genome polyprotein [2], 5.09 and 5.17.
For `NCc1cccc(NC(=O)[C@H](NC(=O)OCc2ccccc2)C2CCN(Cc3ccccc3)CC2)c1`, the pIC50 on Genome polyprotein [1] and against Genome polyprotein [2] was under 4.00 throughout.
`NCc1cccc(NC(=O)c2cccc3c2O[C@H](c2ccccc2)C(=O)N3)c1`: the pIC50 against Genome polyprotein [1] and on Genome polyprotein [2] was under 4.00 in each case.
On to `CCc1cc(NC(=O)OCc2ccccc2)cc(C(=O)Nc2cccc(CN)c2)c1`, for which the pIC50 on Genome polyprotein [1] and on Genome polyprotein [2] was under 4.00 in each case.
Turning to `O=C(Nc1cc(Cl)cc(C(=O)N[C@@]23CCCCC[C@@H]2NCC3)c1)OCc1ccccc1`, the pIC50 against Genome polyprotein [1] and against Genome polyprotein [2] was under 4.00 each time.
Consider `N#C[C@H](Nc1cccc(-c2nn[nH]n2)c1)c1cc(Cl)cc2[nH]ncc12`, for which the results for the pIC50 on Genome polyprotein [1] and against Genome polyprotein [2] were under 4.00 and 4.05, respectively.
In the case of `O=C(O)CCCn1cnc(-c2cc(Cl)cc(NC(=O)OCc3ccccc3)c2)n1`, the pIC50 at Genome polyprotein [1] and on Genome polyprotein [2] was under 4.00 each time.
For `CC(C)CNC(=O)c1cc(Cl)c(F)cc1NS(=O)(=O)c1ccc(Oc2ccccc2Cl)cc1`, the pIC50 against Genome polyprotein [1] is 5.21; on Genome polyprotein [2], 4.84 and 4.90 and 4.92 and 4.63 and 5.06.
With `Cc1cc(C(=O)Nc2cccc(CN)c2)c2c(n1)CCCC2`, the negative logarithm of the IC50 (pIC50) at Genome polyprotein [1] and at Genome polyprotein [2] was under 4.00 throughout.
As to `NCc1cc(Br)cc(NC(=O)c2cc(Cl)cc(NC(=O)OCc3ccccc3)c2)c1`, the negative logarithm of the IC50 (pIC50) at Genome polyprotein [1] and on Genome polyprotein [2] was under 4.00 each time.
Turning to `NCc1cccc(NC(=O)[C@@]23CCC[C@H](C2)N3C(=O)OCc2ccccc2)c1`, the pIC50 at Genome polyprotein [1] and at Genome polyprotein [2] was under 4.00 each time.
Take `Nc1ccncc1-c1cc(F)cc(C(=O)Nc2ccc3c(c2)CNC3)c1`: the pIC50 against Genome polyprotein [1] and at Genome polyprotein [2] was under 4.00 throughout.
For the compound `CCOC(=O)c1csc([C@H]2CCCN2C(=O)Nc2ccc3c(c2)CNC3)n1`, the pIC50 against Genome polyprotein [1] and on Genome polyprotein [2] was under 4.00 each time.
In the case of `CNC(=O)[C@H](Nc1ccc2c(c1)CNC2)c1cc(Cl)cc(C2CC2)c1`, the pIC50 at Genome polyprotein [1] and on Genome polyprotein [2] was under 4.00 each time.
For the compound `NCc1cccc(NC(=O)[C@H](NC(=O)OCc2ccccc2)c2cccc(OCCn3cccn3)c2)c1`, the negative logarithm of the IC50 (pIC50) at Genome polyprotein [1] and against Genome polyprotein [2] was under 4.00 in each case.
As for `Cn1nc(C(=O)Nc2cc(CCCN)ccn2)cc1C1CC1`, the negative-log IC50 (pIC50) at Genome polyprotein [1] and on Genome polyprotein [2] was under 4.00 each time.
As for `C[C@@H](NCc1c[nH]c2ccccc12)c1cscn1`, the pIC50 against Genome polyprotein [1] and against Genome polyprotein [2] was under 4.00 throughout.
As for `CCn1c(C)cc(C(=O)Nc2cc(CCCN)ccn2)c1C`, the pIC50 against Genome polyprotein [1] and against Genome polyprotein [2] was under 4.00 each time.
With `Cc1c(C(=O)Nc2cccc(CN3CCCC3=O)c2)cc(C2CC2)n1C`, the pIC50 on Genome polyprotein [1] and at Genome polyprotein [2] was under 4.00 in each case.
Turning to `CN(C)C(=O)C[C@H]1NCc2cc(NC(=O)c3cc(F)cc4[nH]ncc34)ccc21`, the pIC50 at Genome polyprotein [1] was under 4.00; against Genome polyprotein [2], 4.26 and 4.14.
Consider `O=C(Nc1ccc2c(c1)CNC2)c1cccc2nc(O)ccc12`, for which the pIC50 against Genome polyprotein [1] was under 4.00; at Genome polyprotein [2], 4.32 and 5.30.
Turning to `C[C@]1(OCCCO)C(=O)Nc2cc(F)cc(C(=O)Nc3ccc4c(c3)CNC4)c21`, the pIC50 against Genome polyprotein [1] and at Genome polyprotein [2] was under 4.00 in each case.
As to `O=C(Nc1ccc2c(c1)CNC2)c1c(Cl)ccc2c1OCO2`, the pIC50 against Genome polyprotein [1] and against Genome polyprotein [2] was under 4.00 throughout.
In the case of `O=C(Nc1cc(Cl)cc(C(=O)NCC[C@H]2COCCN2)c1)OCc1ccccc1`, the pIC50 on Genome polyprotein [1] and on Genome polyprotein [2] was under 4.00 throughout.
As to `O=C(Nc1ccc2c(c1)CS(=O)(=O)C2)c1cc(Cl)cc2[nH]ncc12`, the negative logarithm of the IC50 (pIC50) against Genome polyprotein [1] and on Genome polyprotein [2] was under 4.00 each time.
As to `Cc1oc(C2CC2)nc1C(=O)Nc1cc(CCCN)ccn1`, the negative-log IC50 (pIC50) against Genome polyprotein [1] and at Genome polyprotein [2] was under 4.00 each time.
Take `O=C(Nc1ccc2c(c1)CNC2)c1nc(-c2ccccc2)cs1`: the pIC50 at Genome polyprotein [1] and against Genome polyprotein [2] was under 4.00 each time.
Regarding `C[C@H]1C[C@H](c2cccc(CN)c2)[C@@H](c2cc(Cl)cc(NC(=O)OCc3ccccc3)c2)C1`, the values for the pIC50 against Genome polyprotein [1] and against Genome polyprotein [2] were 4.25 and 4.11, respectively.
For `O=C(Nc1ccc2c(c1)CNC2)c1cc(C(F)(F)F)nc2[nH]ccc12` the same measures were under 4.00 and under 4.00.
For `Cc1c(C(=O)Nc2ccc(CCN)cc2)cc(C2CC2)n1C`, the pIC50 at Genome polyprotein [1] and on Genome polyprotein [2] was under 4.00 throughout.
For the compound `CNC(=O)[C@H](Nc1cc(Cl)cc2[nH]ncc12)c1ccc2c(c1)CNC2`, the negative-log IC50 (pIC50) at Genome polyprotein [1] and against Genome polyprotein [2] was under 4.00 in each case.
The compound `COc1ccc(S(=O)(=O)n2nc(OC(=O)c3ccccc3)cc2N)cc1` had a pIC50 on Genome polyprotein [1] of 5.46. Moreover, the IC50 at Genome polyprotein [2] is 2.53 µM and 2.17 µM and 3.95 µM and 3.07 µM (2×) and 2.23 µM and 3.29 µM and 3.81 µM and 2.28 µM.
For `CC(C)NC(=O)[C@H](Nc1ccc2c(c1)CN(C)C2)c1cc(Cl)cc2[nH]ncc12`, the pIC50 against Genome polyprotein [1] is under 4.00; against Genome polyprotein [2], 4.24 and < 4.00.
On to `Cn1nnc(S(=O)(=O)N2CCC([C@H](NC(=O)OCc3ccccc3)C(=O)Nc3cccc(CN)c3)CC2)n1`, for which the pIC50 on Genome polyprotein [1] and at Genome polyprotein [2] was under 4.00 in each case.
Consider `O=C(Nc1ccc2c(c1)CNC2)c1cncc(-c2ccccc2)c1`, for which the negative-log IC50 (pIC50) on Genome polyprotein [1] and against Genome polyprotein [2] was under 4.00 in each case.
As to `O=C(NCC(F)F)[C@H](Nc1ccc2c(c1)CNC2)c1cc(Br)cc2cn[nH]c12`, the pIC50 against Genome polyprotein [1] and at Genome polyprotein [2] was under 4.00 each time.
In the case of `Cc1c(C(=O)Nc2cc(C(N)=O)c3ccccc3n2)cc(C2CC2)n1C`, the negative logarithm of the IC50 (pIC50) at Genome polyprotein [1] and at Genome polyprotein [2] was under 4.00 throughout.
For `NCc1cccc(NC(=O)[C@@H](NC(=O)OCc2ccccc2)C2CCN(Cc3cccnc3)CC2)c1`, the pIC50 against Genome polyprotein [1] and on Genome polyprotein [2] was under 4.00 throughout.
With `Cc1ccc(C(=O)Nc2cccc(CN)c2)cc1NC(=O)Cc1ccncc1`, the pIC50 on Genome polyprotein [1] and against Genome polyprotein [2] was under 4.00 throughout.
Regarding `CC(=O)Nc1cccc(C(=O)Nc2ccc3c(c2)CNC3)n1`, the pIC50 on Genome polyprotein [1] and against Genome polyprotein [2] was under 4.00 in each case.
Turning to `Cc1c(C(=O)Nc2ccc3c(c2)CNC3)cc(C2CC2)n1C`, the pIC50 against Genome polyprotein [1] and against Genome polyprotein [2] was under 4.00 throughout.
Regarding `COC(=O)c1cc(C(=O)Nc2ccc3c(c2)CNC3)cc2[nH]ccc12`, the pIC50 against Genome polyprotein [1] and against Genome polyprotein [2] was under 4.00 throughout.
With `COCCCC(=O)N1CCC([C@H](NC(=O)OCc2ccccc2)C(=O)Nc2cccc(CN)c2)CC1`, the pIC50 on Genome polyprotein [1] and at Genome polyprotein [2] was under 4.00 in each case.
As for `CNC(=O)[C@H](Nc1cccc(CN)c1)c1cc(Cl)cc(NC(=O)OCc2ccccc2)c1`, the pIC50 against Genome polyprotein [1] and against Genome polyprotein [2] was under 4.00 in each case.
Consider `O=C(Nc1ccc2c(c1)CNC2)c1cc(Cl)cc2c1CCC2`, for which the pIC50 on Genome polyprotein [1] and against Genome polyprotein [2] was under 4.00 each time.
With `O=C(O)c1cccc(NC(=O)c2cc(Cl)cc3[nH]ncc23)c1`, the pIC50 on Genome polyprotein [1] and against Genome polyprotein [2] was under 4.00 in each case.
Take `OCC#C[C@H](Nc1ccc2c(c1)CNC2)c1cc(Cl)cc2[nH]ncc12`: the negative logarithm of the IC50 (pIC50) against Genome polyprotein [1] was 4.60; against Genome polyprotein [2] it was 4.03 and 4.20.
For the compound `O=C(Nc1ccc2c(c1)CNC2)c1cc(Cl)cc2nn(C3COC3)cc12`, the pIC50 on Genome polyprotein [1] and against Genome polyprotein [2] was under 4.00 throughout.
Take `NC[C@H]1CC[C@H](NC(=O)c2cc(Cl)cc3[nH]ncc23)CC1`: the pIC50 at Genome polyprotein [1] and against Genome polyprotein [2] was under 4.00 throughout.
With `Cn1c(=O)[nH]c2cc(C(=O)Nc3ccc4c(c3)CNC4)cc(Br)c21`, the pIC50 was under 4.00 against Genome polyprotein [1]; 4.22 and 4.28 on Genome polyprotein [2].
